What all share (assay type): cell-based, Hepatitis C virus
Experiment [1] concerns genotype 1a HCV replicon cells. In words: HCV replicon luciferase assay, genotype 1a (monotherapy and combination studies). The note with it: genotype 1a replicon, monotherapy, 3 days. (A replicon is a self-replicating genome or part of one, used to study replication in cells.)
Experiment [2] deals with genotype 1b HCV replicon cells. Nature of the experiment: HCV replicon luciferase assay, genotype 1b (monotherapy and combination studies). The procedure:
(§1) The Huh-7 cell-line used for these studies was obtained from Dr. Ralf Bartenschlager (University of Heidelberg, Heidelberg, Germany) and was propagated in DMEM containing 10% FBS, 10 U/ml penicillin and 10 μg/ml streptomycin. The HCV replicons used in these studies were generated at Bristol-Myers Squibb using the procedure described in WO2004014852. The coding sequence of the published genotype 1b HCV replicon (Lohmann, V., F. Korner, J.-O. Koch, U. Herian, L. Theilmann, and R. Bartenschlager 1999, Science 285:110-113) was synthesized by Operon Technologies, Inc. (Alameda, Calif.) using the sequence set forth in EMBL Accession No. AJ242652, nucleotides 1801 to 7758. The functional replicon was then assembled in plasmid pGem9zf(+) (Promega, Madison, Wis.) using standard molecular biology techniques. To create a replicon encoding a luciferase reporter, the gene encoding humanized Renilla Luciferase protein was introduced upstream of the neomycin phosphotransferase gene. The resulting replicon consists of (i) the HCV 5′ UTR fused to the first 12 amino acids of the capsid protein, (ii) the renilla luciferase gene, (iii) the neomycin phosphotransferase gene (neo), (iv) the IRES from encephalomyocarditis virus (EMCV), and (v) HCV NS3 to NS5B genes and the HCV 3′ UTR.
(§2) HCV replicon cell lines were isolated from colonies as described by Lohman, et. al (Lohmann, V., F. Korner, J.-O. Koch, U. Herian, L. Theilmann, and R. Bartenschlager 1999, Science 285:110-113) and used for all experiments. Briefly, replicon clones were linearized with ScaI and RNA transcripts synthesized in vitro using the T7 MegaScript transcription kit (Ambion, Austin, Tex.) according to manufacturer's directions. Ten to 20 μg of in vitro transcribed replicon RNA was introduced into 4−5×10^6 Huh-7 cells by transfection with DMRIE-C reagent (Invitrogen Corporation, Carlsbad, Calif.) following manufacturer's protocols. After 24 h, selective media containing 0.5 mg/mL Geneticin (G418, Gibco-BRL, Rockville, Md.) was added and media was changed every 3 to 5 days. After approximately 4 weeks, cells were expanded for further analysis. Cells were maintained at 37° C. in DMEM (Gibco-BRL, Rockville, Md.) with 10% heat inactivated calf serum (Sigma), penicillin/streptomycin, and 0.5 mg/ml G418.
(§3) To determine compound efficacy, HCV replicon cells were plated at a density of 10^4 per well in 96-well plates in DMEM media containing 10% FBS. Following incubation overnight, compounds serially diluted in DMSO, or DMSO alone, were added to individual wells to a final DMSO concentration of 0.5%. Cell plates were then incubated at 37° C. for 3 days prior to assaying for cytotoxicity and HCV inhibition. Cell viability was measured using an Alamar blue assay and CC50 values were calculated using the median effect equation.
(§4) Plates were then washed two times with PBS and renilla luciferase activity assayed using a Dual-Glo Luciferase Assay System (Promega Corporation, Madison, Wis.) according to the manufacturer's directions. Plates were read on a TopCount NXT Microplate Scintillation and Luminescence Counter (Packard Instrument Company). The 50% effective concentration (EC50) was calculated by using Excel Fit (Version 2.0, Build 30). Known x (compound concentration) and y (% relative to DMSO-only control wells) values were used to calculate the EC50 with Excel Fit equation 205, represented as y=A+((B−A)/(1+((C/x)^D))), where A and B equal the bottom and top plateaus of the curve, respectively, C equals the x value at the middle of the curve, and D equals the slope factor.
(§5) For inhibitor combination studies, IFN-α and inhibitors of HCV NS5A and the NS3 protease were each tested at eleven concentrations. Stock solutions, 200 times the desired final assay concentration, were prepared by 3-fold dilution in DMSO prior to addition to cells/media. The compounds were tested as monotherapies and in combinations with the compound of formula (I) at various concentration ratios.

Experiment [3] relates to HCV replicon. In words: HCV replicon luciferase assay, triple combinations with lambda interferons (genotype not stated). The procedure: as §1, §2, §3, §4, §5
The target in experiment [4] is HCV replicon. The description is as above. The note with it: monotherapy (Table 6).

pEC50: −log10 of the molar value. Where “and” joins values, the source holds several entries; their conditions need not be identical. Identical values can stand only once. Like-named read-outs stand apart in the source and are kept apart here.

For `C=C[C@@H]1C[C@]1(NC(=O)[C@@H]1C[C@@H](Oc2ncc(OC)c3ccc(Cl)cc23)CN1C(=O)[C@@H](NC(=O)OC(C)(C)C)C(C)(C)C)C(=O)NS(=O)(=O)C1CC1` [NS3 protease inhibitor of formula (II)], the pEC50 was 8.11 in experiment [1] (Hepatitis C virus, 72 h, read-out: NS3 Protease Inhibitor EC50); 8.07 in experiment [1] (read-out: NS3 Protease Inhibitor EC50); 9.30 in experiment [2] (Hepatitis C virus, 72 h, genotype 1b replicon, monotherapy, 3 days (Table 3), read-out: NS3 Protease Inhibitor EC50); 8.89 in experiment [2] (Hepatitis C virus, genotype 1b replicon cells, monotherapy (Table 4), read-out: NS3 Protease Inhibitor EC50); 8.66 and 8.72 and 8.82 in experiment [2] (genotype 1b replicon cells, monotherapy (Table 4), read-out: NS3 Protease Inhibitor EC50); 9.22 in experiment [2] (genotype 1b replicon, monotherapy, 3 days (Table 3), read-out: NS3 Protease Inhibitor EC50). The pEC50 in experiment [3] (Hepatitis C virus, monotherapy (Table 5), read-out: NS3 Protease Inhibitor EC50) is 9.20; in experiment [3] (Hepatitis C virus, monotherapy (Table 6), read-out: NS3 Protease Inhibitor EC50), 8.85; in experiment [3] (monotherapy (Table 5), read-out: NS3 Protease Inhibitor EC50), 9.02 and 8.96; in experiment [3] (monotherapy (Table 6), read-out: NS3 Protease Inhibitor EC50), 8.92 and 8.64.

As for `COC(=O)N[C@H](C(=O)N1CCC[C@H]1c1ncc(-c2ccc(-c3ccc(-c4cnc([C@@H]5CCCN5C(=O)[C@@H](NC(=O)OC)C(C)C)[nH]4)cc3)cc2)[nH]1)C(C)C` [NS5A inhibitor of formula (I)], the pEC50 was 10.43 in experiment [1] (Hepatitis C virus, 72 h, read-out: NS5A Inhibitor EC50); 10.35 in experiment [1] (read-out: NS5A Inhibitor EC50); 11.52 in experiment [2] (Hepatitis C virus, 72 h, genotype 1b replicon, monotherapy, 3 days (Table 3), read-out: NS5A Inhibitor EC50); 11.30 in experiment [2] (Hepatitis C virus, genotype 1b replicon cells, monotherapy (Table 4), read-out: NS5A Inhibitor EC50); 11.22 in experiment [2] (genotype 1b replicon cells, monotherapy (Table 4), read-out: NS5A Inhibitor EC50); 11.52 in experiment [3] (Hepatitis C virus, monotherapy (Table 5), read-out: NS5A Inhibitor EC50). In addition, the negative-log EC50 (pEC50) in experiment [3] (Hepatitis C virus, monotherapy (Table 6), read-out: NS5A Inhibitor EC50) was 11.10; in experiment [3] (monotherapy (Table 5), read-out: NS5A Inhibitor EC50), 11.40; in experiment [3] (monotherapy (Table 6), read-out: NS5A Inhibitor EC50), 11.05 and 11.30.

On to “rIFNλ1: Recombinant IL-29 expressed in E. coli as a modified N-terminal methionylated form of human IL-29”, for which the “rIFNλ1 EC50” value in experiment [4] was 0.52 ng/mL and 0.27 ng/mL and 0.53 ng/mL.

A word on the pEC50: it is the negative decadic logarithm of the EC50, by convention in mol/L.

Values taken from US8415374B2, “Combinations of hepatitis C virus inhibitors” (Bristol-Myers Squibb Company, priority 2009, dated 2013).
